Data from patent publication US4851416A, “Berban derivatives as α2 -adrenergic antagonists” (priority 1985, dated 1989).
Counter-ions that a name gives are not always drawn. Like-named read-outs stand apart in the source and are kept apart here.

Tests used:
[1] = target: T1, α2-receptors of the rat vas deferens (Rattus norvegicus, UniProt P22909); assay: Antagonism of α2-receptors of the rat vas deferens (xylazine as agonist); assay type: biochemical; details: for Kb: read-out: pA2 (α2, rat vas deferens) (converted)
T1 construct: from tissue; host or cells: rat vas deferens
T1 sequence (P22909 1-465): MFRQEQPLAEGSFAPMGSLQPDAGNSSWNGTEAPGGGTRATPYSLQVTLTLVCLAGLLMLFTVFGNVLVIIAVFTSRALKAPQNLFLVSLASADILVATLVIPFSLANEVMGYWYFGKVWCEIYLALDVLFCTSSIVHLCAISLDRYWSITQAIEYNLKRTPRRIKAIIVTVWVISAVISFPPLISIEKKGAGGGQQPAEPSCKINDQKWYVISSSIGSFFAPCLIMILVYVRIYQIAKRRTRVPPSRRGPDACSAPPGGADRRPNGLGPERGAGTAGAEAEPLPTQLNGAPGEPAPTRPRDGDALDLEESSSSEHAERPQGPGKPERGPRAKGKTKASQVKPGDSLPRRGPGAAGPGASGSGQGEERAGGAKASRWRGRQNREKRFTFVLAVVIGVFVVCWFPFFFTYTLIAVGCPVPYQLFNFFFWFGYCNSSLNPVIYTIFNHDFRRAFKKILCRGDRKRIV
Experimental: The action of known α-adrenergic receptor-blocking agents and the
formula (I) on the α2 -receptors of the rat vas deferens
(xylazine as agonist) and of the
The tissues were suspended at 37° C. in an organ bath containing 5 ml of Krebs solution. […] Both the compounds of formula (I) and the reference substances were tested against xylazine (on the rat vas daferens) as well as against […] (on the longitudinal smooth muscle preparation from the guinea pig ileum). The amplitude of the contraction response caused by the stimulation is inhibited on the α2 -adrenergic receptors by xylazine or norepinephrine.

[2] = target: T2, α1-receptors of the rat vas deferens (Rattus norvegicus, UniProt P43140); assay: Antagonism of α1-receptors of the rat vas deferens (phenylephrine as agonist); assay type: biochemical; design: key to nature of the competition (α1, rat vas deferens): NC means non-competitive; C means competitive; details: for Kb: compounds of formula (I) as hydrochlorides, read-out: pA2 (α1, rat vas deferens) (converted)
T2 construct: from tissue; host or cells: rat vas deferens
T2 sequence (P43140 1-466): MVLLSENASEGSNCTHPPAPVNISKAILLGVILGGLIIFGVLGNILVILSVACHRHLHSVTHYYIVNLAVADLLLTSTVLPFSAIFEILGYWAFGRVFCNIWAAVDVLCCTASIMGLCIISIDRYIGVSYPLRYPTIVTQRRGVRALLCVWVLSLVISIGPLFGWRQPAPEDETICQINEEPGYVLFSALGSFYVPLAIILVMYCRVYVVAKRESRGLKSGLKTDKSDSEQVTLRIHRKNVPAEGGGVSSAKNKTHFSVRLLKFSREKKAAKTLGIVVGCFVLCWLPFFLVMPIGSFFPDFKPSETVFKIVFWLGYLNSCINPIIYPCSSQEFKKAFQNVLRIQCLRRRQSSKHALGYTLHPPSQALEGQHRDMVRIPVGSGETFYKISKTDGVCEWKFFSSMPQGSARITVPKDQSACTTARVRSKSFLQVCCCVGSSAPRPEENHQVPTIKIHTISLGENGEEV
Experimental: Phenylephrine was used as agonist on the α1 -adrenergic receptors whereby both the rat vas deferens and the pulmonary artery of the rabbit were contracted. […] The pA2 value was determined by using the method of Arunlakshana and Schield (1959) cited above. The nature of the competition is also given (NC means non-competitive, C means competitive).

[3] = target: α1-receptors of the pulmonary artery of rabbit; assay: Antagonism of α1-receptors of the pulmonary artery of rabbit (norepinephrine as agonist); assay type: biochemical; details: compounds of formula (I) as hydrochlorides
Excerpt: On the α1 -receptors of the pulmonary artery, a contraction is elicited by norepinephrine which is inhibited by antagonists.

[4] = target: α1-receptors of the pulmonary artery of rabbit; assay: Antagonism of α1-receptors of the pulmonary artery of rabbit (phenylephrine as agonist); assay type: biochemical; details: compounds of formula (I) as hydrochlorides
Experimental: The action of known α-adrenergic receptor-blocking
on the α1 -receptors of the rat vas deferens and of
the pulmonary artery of rabbit against phenylephrine
Phenylephrine was used as agonist on the α1 -adrenergic receptors whereby both the rat vas deferens and the pulmonary artery of the rabbit were contracted. This concractile effect was inhibited by antagonists. The pA2 value was determined by using the method of Arunlakshana and Schield (1959) cited above. The nature of the competition is also given (NC means non-competitive, C means competitive).

[5] = tested on: norepinephrine turnover in the frontal cortex; assay: Norepinephrine turnover in the frontal cortex after α-methyl-p-tyrosine; assay type: in vivo, rat; details: for Kb (fractional rate constant) / Tt (catecholamine turnover time) / TRCA (catecholamine turnover rate): NE, with α-MPT; for TRCA (catecholamine turnover rate): ** p 0.01, *** p 0.001 vs control; for NE content: α-MPT 320 mg/kg i.p. pre-treatment, 4 animals
Experimental: (§1) Male rates with 100 g of body-weight were intraperitoneally pre-treated (at minute 0) with 320 mg/kg of α-methyl-p-tyrosine. […] After centrifuging, the norepinephrine content (frontal cortex) or the dopamine content (striatum) of the supernatant, respectively, was determined by using the method of the […] liquid chromatography-electrochemical detection. […] The significance level of the difference related to the control group was also determined (** p 0.01; *** p 0.001).

[6] = tested on: dopamine turnover in the striatum; assay: Dopamine turnover in the striatum after α-methyl-p-tyrosine; assay type: in vivo, rat; details: for Kb (fractional rate constant) / Tt (catecholamine turnover time) / TRCA (catecholamine turnover rate): DA, with α-MPT; for TRCA (catecholamine turnover rate): ** p 0.01 vs control; for DA content: α-MPT 320 mg/kg i.p. pre-treatment, 4 animals
Experimental: as §1

[7] = tested on: α2-receptors (vs α1-receptors) of the rat vas deferens; assay: Selectivity against the α2-receptors on the rat vas deferens (from Tables 1 and 2); assay type: biochemical; details: calculated from Tables 1 and 2, hydrochlorides
Excerpt: The pA2 values concerning the α1 -receptor of the antagonists were divided by the pA2 values concerning the α2 -receptor of the antagonists (α1 /α2).

[8] = xylazine as agonist, compounds of formula (I) as hydrochlorides, (n) in brackets

CCOc1cc2c(cc1OCC)[C@H]1C[C@H]3C[C@@H](O)CC[C@H]3CN1CC2 (relative stereo) [Example 11, 14β-hydroxy-7,8-diethoxyalloberban]
Relative activity, vas deferens [1]: 0.05
Kb [1, 8]: 380 nM

CCOC(=O)C1C(O)CCC2CN3CCc4cc5c(cc4C3CC21)OCO5 (stereo not drawn) [Example 17, ethyl 14β-hydroxy-7,8-methylenedioxyalloberban-13-carboxylate]
nature of the competition (α1, rat vas deferens) [2]: NC
Kb [2]: 3090 nM

c1ccc2c(c1)OCC(C1=NCCN1)O2 (centres unmarked) [Idazoxan, reference compound]
nature of the competition (α1, rat vas deferens) [2]: NC
Kb [2]: 1000 nM
pA2 (α1, pulmonary artery of rabbit) [3]: 6.03 ± 0.11

COC(=O)C1C(O)CCC2CN3CCc4cc5c(cc4C3CC21)OCO5 (stereo not drawn) [Example 1, methyl 14-β-hydroxy-7,8-methylenedioxy-alloberban-13-carboxylate]
nature of the competition (α1, rat vas deferens) [2]: NC
Kb [2]: 661 nM
pA2 (α1, pulmonary artery of rabbit) [4]: 4.68 ± 0.27

COC(=O)[C@@H]1[C@H]2C[C@H]3c4[nH]c5ccccc5c4CCN3C[C@@H]2CC[C@@H]1O [Yohimbine, reference compound]
nature of the competition (α1, rat vas deferens) [2]: NC
pA2 (α1, pulmonary artery of rabbit) [4]: 5.59 ± 0.4
pA2 (α1, pulmonary artery of rabbit) [3]: 5.81 ± 0.37
Kb (fractional rate constant) [5]: 0.880 h⁻¹
Tt (catecholamine turnover time) [5]: 1.13 h
TRCA (catecholamine turnover rate) [5]: 0.87 ± 0.06 nmole/g, h^-1
NE content [5]: 0.99 ± 0.07 nmol/g
Kb (fractional rate constant) [6]: 0.906 h⁻¹
Tt (catecholamine turnover time) [6]: 1.10 h
TRCA (catecholamine turnover rate) [6]: 58.40 ± 5.47 nmole/g, h^-1
DA content [6]: 64.46 ± 6.04 nmol/g

O[C@@H]1CC[C@H]2CN3CCc4cc5c(cc4[C@H]3C[C@H]2C1)OCO5 (relative stereo) [Example 26, 14α-hydroxy-7,8-methylenedioxyalloberban]
nature of the competition (α1, rat vas deferens) [2]: NC
Kb [2]: 11200 nM
pA2 (α1, pulmonary artery of rabbit) [3]: 5.29 ± 0.20
Kb (fractional rate constant) [5]: 0.740 h⁻¹
Tt (catecholamine turnover time) [5]: 1.35 h
TRCA (catecholamine turnover rate) [5]: 0.64 ± 0.03 nmole/g, h^-1
NE content [5]: 0.87 ± 0.05 nmol/g
Kb (fractional rate constant) [6]: 0.776 h⁻¹
Tt (catecholamine turnover time) [6]: 1.28 h
TRCA (catecholamine turnover rate) [6]: 37.27 ± 3.62 nmole/g, h^-1
DA content [6]: 48.03 ± 4.66 nmol/g

COC(=O)C1C(O)CCC2CN3CCc4cc5c(cc4C3CC21)OCO5 (stereo not drawn) [Example 6, methyl 14α-hydroxy-7,8-methylenedioxyberban-13-carboxylate]
pA2 (α1, pulmonary artery of rabbit) [4]: 4.61 ± 0.2

Cc1ccc(N(CC2=NCCN2)c2cccc(O)c2)cc1 [Phentolamine, reference compound]
nature of the competition (α1, rat vas deferens) [2]: C

O[C@H]1CC[C@H]2CN3CCc4cc5c(cc4[C@H]3C[C@H]2C1)OCO5 (relative stereo) [Example 25, 14β-hydroxy-7,8-methylenedioxyalloberban]
nature of the competition (α1, rat vas deferens) [2]: NC
Kb [2]: 14100 nM
pA2 (α1, pulmonary artery of rabbit) [3]: 4.83 ± 0.52

CCn1ccnc1CC1COc2ccccc2O1 (centres unmarked) [Imiloxan, reference compound]
Kb [1, 8]: 145 nM
Relative activity, vas deferens ([1]; α2-inhibiting effect relative to yohimbine = 1.0): 0.13
nature of the competition (α1, rat vas deferens) [2]: NC
Kb [2]: 52.5 nM
Selectivity α1/α2 [7]: 0.36

Oc1cc2c(cc1O)[C@H]1C[C@H]3C[C@@H](O)CC[C@H]3CN1CC2 (relative stereo) [As hydrobromide]
Relative activity, vas deferens [1]: 0.01
pA2 (α2, rat vas deferens) [1, 8]: 5.74 ± 0.11
